Laboratory results as given in patent publication US9056105B2, “Method for treatment of bone diseases and fractures” (INDIANA UNIVERSITY RESEARCH AND TECHNOLOGY CORPORATION, priority 2008, dated 2015).

Columns and labels:
MLO-A5 osteocyte cells = assay: mRNA levels by real-time PCR in MLO-A5 osteocyte cells; type: cell-based; conditions: 100 nM-50 μM, 1-24 h
Procedure: (§1) Responses to Administration of Salubrinal—In vitro responses to salubrinal: In order to evaluate the effects of salubrinal, MC3T3 E1 osteoblast-like cells and MLO-A5 osteocyte cells (Barragan-Adjemian, C., et al., “Mechanism by which MLO-A5 late osteoblasts/early osteocytes mineralize in culture: similarities with mineralization of lamellar bone,” Calcif. Tissue Int. 79:340-353 (2006)) were incubated with salubrinal at 100 nM-50 μM for 1-24 h. The mRNA levels of the selected genes, TF4, ATF3, Osteocalcin (OCN), and CHOP, were determined by real-time PCR. […] In MC3T3 cells, for instance, the Osteocalcin mRNA level, which is regulated by ATF4 and Runx2 (Xiao et al. 2005), was elevated 11.8±0.2 fold at 10 μM salubrinal in 24 h.

femora of C57BL/6 mice = assay: Intramedullary injection into mouse femur, BMD and BMC; type: in vivo
Procedure: Responses to Administration of Salubrinal—In Vivo Responses to salubrinal: In order to evaluate the effects of salubrinal in vivo, salubrinal was injected into an intramedullary cavity of the left femora of C57BL/6 mice and alterations in bone mineral density (BMD) and bone mineral content (BMC) were determined. There were 9 salubrinal treated mice as well as 9 placebo mice (injection of PBS). All mice received 4 injections of either salubrinal or PBS in the left femur, while the right femur was used as contralateral control. In four consecutive injections with a 0.5-inch #26-gauge needle and a Hamilton micro-syringe, the laterial side was used on the 1st and 3rd injections and the medial side on the 2nd and 4th injections. An injection volume was 20 μl for salubrinal or PBS, and the salubrinal concentration was 50 μM. […] At the time of harvest (2 wks after the 1st injection), an increase in body weight in Salubrinal group (0.80±0.13 g) was higher than that in Placebo group (0.28±0.15 g; p<0.05). Harvested bone samples were analyzed with PIXImus (version 1.4, GE Medical System Lunar) for determination of BMD and BMC.

rat tibia = assay: Rat tibia healing of surgical wounds, micro CT; type: in vivo; conditions: for reduction in wound size vs control: medial cortex
Text: Rat tibia—healing of surgical wounds. Twenty female SD rats (˜8 weeks, body weight˜180 g) received a surgical hole with ˜2.0 mm in diameter in the left and right tibiae (Zhang P., et al., Knee loading accelerates bone healing in mice, J. Bone Miner. Res. 22:1979-1987 (2007)). The hole was located on the medial surface ˜15 mm distant apart from the proximal end of the tibia (Chiba S., et al., Molecular analysis of defect healing in rat diaphyseal bone, J. Vet. Med. Sci. 63:603-606 (2001)). During the first 5 days, 100 μl of salubrinal solution at dosage of 0.025 mg/kg was injected into the left limb and a PBS solution (vehicle control) in the right limb (Wang J W, et al., Locally applied simvastatin promotes fracture healing in ovariectomized rat, Osteoporosis Int. 18:1641-1650 (2007)). Injection was subcutaneous targeted to the wound site. Rats were sacrificed on days 10 or 20 after surgery, and the axial and transverse length of the holes as well as cortical thickness (1.5 mm proximal and distal to the center of the hole) were determined with micro CT imaging (μCT-20, Scanco Medical AG) (FIG. 16).

mouse tibia = assay: Mouse tibia bone formation, ankle loading plus local salubrinal; type: in vivo; conditions: 0.025 mg/kg (100 μM) salubrinal plus ankle loading, 5 days
Procedure: Mouse tibia-bone formation: Twenty C57/BL/6 Female Mice (˜8 weeks, body weight˜18 g) were employed to examine the combined effects of ankle loading and local administration of salubrinal to the tibia (Zhang P, et al., Salubrinal stimulates anabolic responses in mouse femora, 55th Ann Meeting ORS (2009)). Local administration was targeted into a bone marrow cavity from the proximal tibia. A total volume of 20 μl PBS was injected to the left hindlimb with or without 0.025 mg/kg (100 μM) salubrinal (Calbiochem) using a micro-syringe with a 0.5-inch #26-gauge needle (Worsham D N, et al., In vivo gene transfer into adult stem cells in unconditioned mice by in situ delivery of a lentiviral vector, Mol. Ther. 14:514-24 (2006); Zhu Y, et al., eIF-2α protects brainstem motoneurons in a murine model of sleep apnea, J. Neurosci. 28:2168-78 (2008)). In examination of the combined effects of mechanical loading and salubrinal administration, ankle loading was given for 5 consecutive days after administration of salubrinal on each day. The mouse was placed in an anesthetic induction chamber to cause sedation and then mask-anesthetized using 1.5% isoflurane. With a custom-made piezoelectric mechanical loader, loads were applied to the left ankle for 5 min/day in the lateral-medial direction. The loading frequency was 5 Hz, and the peak-to-peak force was 0.5 N (FIG. 15). […]

rat β-cells = conditions: 5-75 μM, dosage dependent; cited from earlier work
rat brain = conditions: intra-cerebroventricular or intra-peritoneal administration; cited from earlier work
rat femur = assay: Rat femur healing of surgical wounds, micro CT; type: in vivo; conditions: for increase in cortical thickness vs control: anterior hole; for reduction in wound size vs control: anterior holes; for increase in cortical thickness: posterior hole
Procedure: Rat femur—healing of surgical wounds. A surgical hole with ˜2.0 mm in diameter was generated in the left and right femurs of twenty female SD rats (˜8 weeks, body weight ˜180 g). The holes were drilled through the femur from the anterior surface to the opposite cortex (posterior surface) in the middle of the femur. During the first 5 days, 100 μl of salubrinal solution at dosage of 0.025 mg/kg was injected subcutaneously to the left limb and a PBS solution (vehicle control) in the right limb. The injection site was closed to the anterior surgical hole. Rats were sacrificed on days 10 or 20 after surgery, and the axial and transverse hole sizes as well as cortical thickness (1.5 mm proximal and distal to the center of the hole) were determined with micro CT. […] Regarding the anterior holes, the size of the wounds 10 days after surgery was smaller in the salubrinal treated group by 10.8% (1.905±0.018 mm in control and 1.700±0.021 mm in salubrinal; p<0.001). The size in 20 day samples was further decreased by 18.0% (1.812±0.017 mm in control and 1.486±0.026 mm in salubrinal; p<0.001). […] Note that the reduction in the wound size on day 20 was more significant than those on day 10 in both the anterior and posterior holes (both p<0.001) (FIG. 20B).

brainstem motoneurons = conditions: hypoxia and reoxygenation events; cited from earlier work
[1] = tested on: ATF4, ATF3, CHOP, Runx2, Osterix, Rank 1, Osteocalcin mRNA; assay: mRNA expression levels by real-time PCR in MC3T3 cells; type: cell-based, mouse
Procedure: Responses to Administration of Thapsigargin—Upregulation of transcription factors linked to bone formation as well as PERK: The effects of 10 nM thapsigargin on mRNA expression levels of ISR-linked genes (ATF4, ATF3, and CHOP) as well as genes involved in bone remodeling (Runx2, Osterix, and Rank 1), were examined (FIG. 7). […] Out of 4 transcription factors (ATF4, ATF3, Runx2, and Osterix), the level of ATF4 mRNA was elevated 2-4 fold throughout the treatments. […] The mRNA level of type 1 collagen was elevated 5 h and 10 h for T1h (1 h exposure at 10 nM).
as §1

MC3T3 cells [2] = assay: Microarray analysis (GSEA, IPA) of thapsigargin-induced mild ER stress; type: cell-based, mouse; conditions: 1 h exposure at 10 nM
Procedure: Responses to Administration of Thapsigargin—Linkage to hypoxia through microarray analysis: In response to thapsigargin-induced mild ER stress (1 h exposure at 10 nM), microarray experiments were conducted. First, Gene Set Enrichment Analysis (GSEA; Broad Institute) was used to identify a group of genes that shared common biological functions (Hamamura, K., et al., “Microarray analysis of thapsigargin-induced stress to the endoplasmic reticulum of mouse osteoblasts,” J. Bone Miner. Metab. 26:231-240 (2008)). For each group of gene sets, GSEA calculates an enrichment score and evaluates statistical significance in the enrichment score. […] The highest normalized enrichment score was given to the gene set, HYPOXIA_UP. All genes present in the array were reordered based on a ranked list-metric value (a mean expression ratio between the thapsigargin-treated and untreated samples), and the best enrichment score of “−0.66” was assigned. Note that if the expression ratio is random among the genes in HYPOXIA_UP, the expected enrichment score is ±0.23. The enrichment score, ranked […] and P (enrichment score) supported the conclusions drawn from the software program output. […]

[3] = tested on: PERK, PKR, p-38 MAPK, ERK1/2; assay: Phosphorylation of eIF2α kinases and MAP kinases; type: cell-based, mouse; conditions: 10 nM, 1 h exposure
Procedure: In response to T1h (1 h exposure at 10 nM), the level of phosphorylation of two eIF2α kinases (PERK and PKR), and two MAP kinases (p-38 MAPK and ERK1/2) was examined (FIG. 8).

[4] = tested on: CHOP, pro-caspase 3, cleaved caspase 3; assay: Protein levels of CHOP, pro-caspase 3 and cleaved caspase 3 (induction of apoptosis); type: cell-based, mouse; conditions: 10 nM
Procedure: (§2) At higher doses of 10 and 100 nM, the levels of eIF2α-p and ATF4 proteins were elevated (FIG. 5A). Thapsigarin is known to induce apoptosis when administered above a threshold concentration.

MC3T3 cells [5] = type: cell-based, mouse
[6] = tested on: eIF2α-p and ATF4 proteins; assay: Western blot of eIF2α-p and ATF4 proteins in MC3T3 E1 osteoblast-like cells; type: cell-based, mouse
Procedure: as §2
MS3T3 osteoblast-like cells were used to evaluate the level of eIF2α-p (phosphorylated form of eukaryotic initiation factor 2—subunit α) in response to salubrinal.

[7] = 10 days after surgery, 0.025 mg/kg

## O=C(/C=C/c1ccccc1)NC(NC(=S)Nc1cccc2cccnc12)C(Cl)(Cl)Cl (stereo not drawn) [salubrinal]
MLO-A5 osteocyte cells
  mRNA levels of ATF4, ATF3, Osteocalcin and CHOP: did not show any significant alterations
Femora of C57BL/6 mice; 20 μl 50 μM injection, 4 injections, mean±s.e.m.
  BMD of injected femur: 0.0456±0.0011 g/cm^2
Femora of C57BL/6 mice; p=0.02
  BMD compared to contralateral control: increased
Femora of C57BL/6 mice; p=0.09
  BMC compared to contralateral control: showed a trend to elevate
Rat tibia; day 10
  increase in cortical thickness vs control: 11.6%
Rat tibia; day 20
  increase in cortical thickness vs control: 20.3%
Rat tibia; [7]
  reduction in wound size vs control: 12.3%
Rat tibia; 20 days
  reduction in wound size vs control: 19.1%
Mouse tibia
  tibia BMC: 0.0154 ± 0.0004 g
  tibia BMD: 0.0443±0.0011 g/cm^2
Rat β-cells
  apoptosis: induced apoptosis
Rat brain
  excitotoxic neuronal death in vivo: decreased excitotoxic neuronal death
Rat femur; day 10
  increase in cortical thickness vs control: 11.0%
Rat femur; day 20
  increase in cortical thickness vs control: 25.7%
Rat femur; [7]
  reduction in wound size vs control: 10.8%
Rat femur; 20 days
  reduction in wound size vs control: 18.0%
Rat femur; postoperative 10 days
  increase in cortical thickness: 13.8%
Rat femur; postoperative 20 days
  increase in cortical thickness: 21.3%
Brainstem motoneurons
  motoneuronal injury: suppressed motoneuronal injury
[1]; MC3T3 cells, 100 nM-50 μM, 1-24 h
  mRNA levels of ATF4, ATF3, Osteocalcin and CHOP: upregulated

## C/C=C(/C)C(=O)O[C@H]1C(C)=C2[C@H]([C@@H]1OC(=O)CCCCCCC)[C@@](C)(OC(C)=O)C[C@H](OC(=O)CCC)[C@@]1(O)[C@H]2OC(=O)[C@@]1(C)O [thapsigargin]
MC3T3 cells [2]
  core enrichment genes in HYPOXIA_UP vs control: significantly upregulated
[3]
  level of p-ERK1/2: not altered
  level of p-PERK: elevated
  level of p-PKR: not altered
  level of p-p38 MAPK: elevated
[4]
  level of active (cleaved) caspase 3: increased after 24 h
[4]; higher for 5, 10 and 24 h
  level of CHOP protein: started to increase after 3 h
MC3T3 cells [5]; 10 nM, 1 h incubation
  numbers of live and dead cells: does not alter
MC3T3 cells [5]; 1 h exposure at 10 nM
  cell number or mortality vs control cells: no significant difference
[6]; 10 and 100 nM
  levels of eIF2α-p and ATF4 proteins: elevated
[6]; dosages below 0.1 nM
  eIF2α-p and ATF4 protein expression: no detectable upregulation
[1]; 10 nM
  increase in Runx2 mRNA: started at 3 h and peaked at 5 h
  mRNA level of CHOP: 10-35 fold
[1]; 10 nM, 1 h exposure, 5 h and 10 h
  mRNA level of type 1 collagen: elevated
[1]; 10 nM, 3 h for T2h and 10 h for T3h
  Rank 1 mRNA: significantly up
[1]; 1-100 nM for 1-24 h
  level of Osteocalcin mRNA: did not increase
